In ChEMBL document CHEMBL1142285, “Indeno[1,2-c]isoquinolines as enhancing agents on all-trans retinoic acid-mediated differentiation of human myeloid leukemia cells” (2008):

What was measured:
Type in all cases: functional, cell-based
NB-4 [1] = assay: Induction of differentiation in human NB4 cells after 72 hrs by NBT assay
HL-60 [2] = assay: Antiproliferative activity against human HL60 cells after 72 hrs by MTT assay
HL-60 [3] = assay: Induction of differentiation in human HL60 cells after 72 hrs by NBT assay
NB-4 [4] = assay: Antiproliferative activity against human NB4 cells after 72 hrs by MTT assay

Measured: Activity

COc1ccc(Cn2c3c(c4cc(C)ccc4c2=O)C(C)c2ccccc2-3)cc1 (centres undefined)
active: NB-4 [1] Dose-dependent effect | HL-60 [2] Dose-dependent effect | HL-60 [3] Dose-dependent effect | NB-4 [4] Dose-dependent effect
